Measurements published in patent US20250297292A1, “ENZYMATIC REDUCTION OR REDUCTIVE AMINATION OF ARYL AND HETEROCYCLIC CARBOXYLIC ACIDS AND ALDEHYDES” (University of Delaware Newark, priority 2022, published 2025).

How the values were obtained:
cvTA = test: Endpoint bioconversion of PET-derived aldehydes to amines by cvTA; assay type: biochemical, Chromobacterium violaceum; conditions: 10 mM substrate, 1.5 μM cvTA, 40 mM iPr-NH2, 24 h at 30° C., N=3
Protocol: cvTA reactions for the conversion of 4FBA and TPAL to their corresponding amine (FIG. 8A) Endpoint bioconversion of 10 mM 4FBA to pAMBA (FIG. 8B) and 10 mM TPAL to pXYL (FIG. 8C) by 1.5 μM cvTA in 100 mM HEPES pH 7.5, 400 μM PLP with 40 mM iPr-NH2 as the amine donor. […] Sample size is N=3 and all data are shown as the mean±standard deviation.

srCAR = test: Time course of enzymatic reduction of PET-derived carboxylates by srCAR with co-factor regeneration; assay type: biochemical, Segniliparus rotundus; conditions: 5 mM substrate, 3-enzyme NADPH and ATP regeneration system, N=3
Protocol: Endpoint in vitro assays showing the conversion of 5 mM TPA to TPAL after 24 h, with and without co-factor regenerating enzymes. […] Time course analysis of the enzymatic reduction of (i) 5 mM TPA, (ii) 5 mM 4FBA, (iii) 5 mM mmTPA and (iv) 5 mM MHET by CAR (FIG. 10B) All experiments included a 3-enzyme NADPH and ATP regeneration system. […] Sample size is N=3 and all data are shown as the mean±standard deviation. Error bars for certain points of the bioconversion of mmTPA to mm4FBA are smaller than the height of the symbol.

[1] = target: lipase from Candida antarctica (CALB) (Moesziomyces antarcticus, UniProt P41365); test: De-esterification of PET-derived ester aldehydes by lipase CALB; assay type: biochemical; conditions: 1 mM substrate, 24 h, 30° C.
Sequence of lipase from Candida antarctica (CALB) (P41365 26-342): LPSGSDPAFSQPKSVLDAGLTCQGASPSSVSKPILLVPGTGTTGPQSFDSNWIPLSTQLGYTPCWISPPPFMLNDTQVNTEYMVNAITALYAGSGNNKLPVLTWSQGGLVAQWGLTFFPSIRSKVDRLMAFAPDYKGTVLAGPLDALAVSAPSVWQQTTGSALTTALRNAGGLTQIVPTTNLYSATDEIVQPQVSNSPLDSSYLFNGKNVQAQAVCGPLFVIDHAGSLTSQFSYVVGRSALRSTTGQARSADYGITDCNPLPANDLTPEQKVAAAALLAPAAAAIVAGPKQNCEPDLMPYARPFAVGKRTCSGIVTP

[2] = system: CAR from Segniliparus rotundus (srCAR); test: CAR initial rate by NADPH oxidation (srCAR on PET-derived carboxylates); assay type: biochemical; conditions: average activity of srCAR on TPA, triplicate average; used to normalize the heatmap
From the text: Using a sequence similarity network, CARs were sampled across distinct protein clusters to probe for activity on TPA. Of 22 cloned CARs, 17 expressed, with 9 of those CARs being unreported in literature (FIG. 9A). Anti-His6 Western blot of cell lysate from E. coli BL21 (DE3) harboring different CARs is shown by phylogeny (FIG. 9B). CARS were expressed under optimized conditions. The Western blot is comprised of two separate blots, which are delineated by the dashed lines and contain their own protein ladders. The first lane of the Western blot is a control lane consisting of lysate from E. coli BL21 (DE3) with no CAR plasmid. A band corresponding to the putative CAR from Streptomyces noursei was not detected during Western blot analysis but was confirmed in a separate experiment. The substrate specificity of CAR was evaluated on TPA, 4FBA, MHET and mmTPA, which are carboxylates related to PET depolymerization (FIG. 9C). In addition, pAMBA was tested, as it is a potential reaction intermediate in our proposed multienzyme cascade for the formation of amines. Under mild aqueous conditions, the conversion of CAR was tracked on TPA, 4FBA, MHET, mmTPA, pAMBA and the model aromatic acid, benzoic acid (FIG. 9D). Here, the oxidation of NADPH is measured as a proxy to aldehyde formation, as depletion of NADPH is linked to the consumption of substrate. […]

| SMILES | endpoint bioconversion of aldehyde to amine (cvTA) | over-reduction of aldehyde product to alcohol during reduction (srCAR) | de-esterification by CALB [1] | further results |
| --- | --- | --- | --- | --- |
| O=Cc1ccc(C(=O)O)cc1 [4FBA, 4-formylbenzoic acid] | proceeds to completion | over-reduction of aldehydes to alcohols |  |  |
| O=Cc1ccc(C(=O)OCCO)cc1 [MHE-4FBA, 2-hydroxyethyl 4-formylbenzoate] |  |  | completely de-esterified |  |
| O=C(O)c1ccc(C(=O)O)cc1 [TPA, terephthalic acid] |  | over-reduction of aldehydes to alcohols |  | average initial rate (oxidation of NADPH as proxy to aldehyde formation) [2]: 4.80 mM NADPHox·h^−1·μMCAR^−1 |
| O=Cc1ccc(C=O)cc1 [TPAL, terephthalaldehyde] | proceeds to completion |  |  |  |
| COC(=O)c1ccc(C=O)cc1 [mm4FBA, methyl 4-formylbenzoate] |  |  | completely de-esterified |  |
| COC(=O)c1ccc(C(=O)O)cc1 [mmTPA, monomethyl terephthalate] |  | decline in concentration over time to the purported alcohol product |  |  |
